What was measured:
[1] = system: OVCAR-5; test: NCI SRB assay; type: cell-based, human; conditions: for GI%: OVCAR-5, 10 μM; for Growth Percent: OVCAR-5, 1.00E-5 Molar
[2] = system: MDA-MB-435; test: NCI SRB assay; type: cell-based; conditions: for GI%: MDA-MB-435, 10 μM; for Growth Percent: MDA-MB-435, 1.00E-5 Molar
[3] = system: MDA-MB-468; test: NCI SRB assay; type: cell-based, human; conditions: for GI%: MDA-MB-468, 10 μM; for Growth Percent: MDA-MB-468, 1.00E-5 Molar
[4] = system: SK-MEL-5; test: NCI SRB assay; type: cell-based, human; conditions: for GI%: SK-MEL-5, 10 μM; for Growth Percent: SK-MEL-5, 1.00E-5 Molar
[5] = system: A498; test: NCI SRB assay; type: cell-based, human; conditions: for GI%: A498, 10 μM; for Growth Percent: A498, 1.00E-5 Molar
[6] = system: HOP-92; test: NCI SRB assay; type: cell-based, human; conditions: for GI%: HOP-92, 10 μM; for Growth Percent: HOP-92, 1.00E-5 Molar
[7] = system: RPMI-8226; test: NCI SRB assay; type: cell-based, human; conditions: for GI%: RPMI-8226, 10 μM; for Growth Percent: RPMI-8226, 1.00E-5 Molar
[8] = system: SK-MEL-28; test: NCI SRB assay; type: cell-based, human; conditions: for GI%: SK-MEL-28, 10 μM; for Growth Percent: SK-MEL-28, 1.00E-5 Molar
[9] = system: SF-539; test: NCI SRB assay; type: cell-based, human; conditions: for GI%: SF-539, 10 μM; for Growth Percent: SF-539, 1.00E-5 Molar
[10] = system: U251; test: NCI SRB assay; type: cell-based, human; conditions: for GI%: U251, 10 μM; for Growth Percent: U251, 1.00E-5 Molar
[11] = system: HS 578 T; test: NCI SRB assay; type: cell-based, human; conditions: for GI%: HS 578 T, 10 μM; for Growth Percent: HS 578T, 1.00E-5 Molar
[12] = system: IGROV1; test: NCI SRB assay; type: cell-based, human; conditions: for GI%: IGROV1, 10 μM; for Growth Percent: IGROV1, 1.00E-5 Molar
[13] = molecular target: T1, hCA I (Homo sapiens, UniProt P00915); test: stopped flow CO2 hydrase assay; type: biochemical; conditions: mean from 3 assays
T1 construct: made in house
T1 sequence (P00915 whole entry): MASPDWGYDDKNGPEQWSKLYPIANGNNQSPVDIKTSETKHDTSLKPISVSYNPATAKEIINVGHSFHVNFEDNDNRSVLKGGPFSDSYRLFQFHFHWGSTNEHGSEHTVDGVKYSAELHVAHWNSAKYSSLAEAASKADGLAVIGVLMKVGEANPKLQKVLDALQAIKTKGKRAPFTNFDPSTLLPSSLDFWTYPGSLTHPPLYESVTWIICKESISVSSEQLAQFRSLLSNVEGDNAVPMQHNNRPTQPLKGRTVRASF
In short: (§1)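 Recombinant enzymes assayed by stopped-flow CO2 hydration using 0.2 mM phenol red at 557 nm in 20 mM Hepes pH 7.5 with 20 mM Na2SO4, CO2 1.7–17 mM. Inhibitor and enzyme preincubated 15 min at room temperature.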

[14] = molecular target: T2, hCA IX (Homo sapiens, UniProt Q16790); test: stopped flow CO2 hydrase assay; type: biochemical; conditions: for Selectivity ratio II/IX: KI hCA II / KI hCA IX; for Ki: mean from 3 assays
T2 construct: made in house
In short: as §1

[15] = molecular target: T3, hCA XII (Homo sapiens, UniProt O43570); test: stopped flow CO2 hydrase assay; type: biochemical; conditions: for Selectivity ratio I/XII: KI hCA I / KI hCA XII; for Selectivity ratio II/XII: KI hCA II / KI hCA XII; for Ki: mean from 3 assays
T3 construct: made in house
T3 sequence (O43570 25-354): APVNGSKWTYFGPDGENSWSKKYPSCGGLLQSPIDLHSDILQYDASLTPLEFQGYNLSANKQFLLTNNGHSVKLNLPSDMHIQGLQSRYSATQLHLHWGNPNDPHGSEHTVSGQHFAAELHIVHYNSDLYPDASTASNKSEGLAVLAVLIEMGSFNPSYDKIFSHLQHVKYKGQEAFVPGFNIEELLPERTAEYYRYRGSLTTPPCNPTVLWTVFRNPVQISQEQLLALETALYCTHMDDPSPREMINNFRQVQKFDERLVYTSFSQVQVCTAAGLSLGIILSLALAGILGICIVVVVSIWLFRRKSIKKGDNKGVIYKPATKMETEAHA
In short: as §1

[16] = system: NCI/ADR-RES; test: NCI SRB assay; type: cell-based, human; conditions: for GI%: 10 μM; for Growth Percent: 1.00E-5 Molar
[17] = system: MALME-3M; test: NCI SRB assay; type: cell-based, human; conditions: for GI%: 10 μM; for Growth Percent: 1.00E-5 Molar
[18] = system: OVCAR-3; test: NCI SRB assay; type: cell-based, human; conditions: for GI%: OVCAR-3, 10 μM; for Growth Percent: OVCAR-3, 1.00E-5 Molar
[19] = system: NCI-H522; test: NCI SRB assay; type: cell-based, human; conditions: for GI%: NCI-H522, 10 μM; for Growth Percent: NCI-H522, 1.00E-5 Molar
[20] = system: COLO 205; test: NCI SRB assay; type: cell-based, human; conditions: for GI%: COLO 205, 10 μM; for Growth Percent: COLO 205, 1.00E-5 Molar
[21] = system: UACC-257; test: NCI SRB assay; type: cell-based, human; conditions: for GI%: UACC-257, 10 μM; for Growth Percent: UACC-257, 1.00E-5 Molar
[22] = system: HL-60(TB); test: NCI SRB assay; type: cell-based, human; conditions: HL-60(TB); for GI%: 10 μM; for Growth Percent: 1.00E-5 Molar
[23] = system: CAKI-1; test: NCI SRB assay; type: cell-based, human; conditions: for GI%: CAKI-1, 10 μM; for Growth Percent: CAKI-1, 1.00E-5 Molar
[24] = system: PC-3; test: NCI SRB assay; type: cell-based, human; conditions: for GI%: PC-3, 10 μM; for Growth Percent: PC-3, 1.00E-5 Molar
[25] = system: M14; test: NCI SRB assay; type: cell-based, human; conditions: for GI%: M14, 10 μM; for Growth Percent: M14, 1.00E-5 Molar
[26] = system: HCC-2998; test: NCI SRB assay; type: cell-based, human; conditions: for GI%: HCC-2998, 10 μM; for Growth Percent: HCC-2998, 1.00E-5 Molar
[27] = system: DU-145; test: NCI SRB assay; type: cell-based, human; conditions: for GI%: DU-145, 10 μM; for Growth Percent: DU-145, 1.00E-5 Molar

COc1ccc(-c2nc(Nc3ccccc3C(=O)O)c3ccccc3n2)cc1 [6c, 2-((2–(4-Methoxyphenyl)quinazolin-4-yl)amino)benzoic acid]
GI% [1]: 27%
Growth Percent [1]: 73.07%
GI% [2]: 44%
Growth Percent [2]: 56.03%
GI% [3]: 57%
Growth Percent [3]: 42.97%
GI% [4]: 70%
Growth Percent [4]: 30.49%
GI% [5]: 41%
Growth Percent [5]: 58.92%
GI% [6]: 78%
Growth Percent [6]: 21.82%
GI% [7]: 80%
Growth Percent [7]: 20.19%
GI% [8]: 35%
Growth Percent [8]: 65.22%
GI% [9]: 37%
Growth Percent [9]: 63.06%
GI% [10]: 66%
Growth Percent [10]: 34.16%
GI% [11]: 72%
Growth Percent [11]: 28.05%
GI% [12]: 21%
Growth Percent [12]: 78.77%
Ki [13]: > 100 µM
Selectivity ratio II/IX [14]: 1.79
Ki [14]: 46.4 µM
Selectivity ratio I/XII [15]: 11.2
Selectivity ratio II/XII [15]: 9.34
Ki [15]: 8.9 µM
GI% [16]: 46%
Growth Percent [16]: 54.40%
GI% [17]: 31%
Growth Percent [17]: 68.60%
GI% [18]: 54%
Growth Percent [18]: 43.93%
GI% [19]: 63%
Growth Percent [19]: 37.29%
GI% [20]: – (Only GI% higher than 20% are shown)
Growth Percent [20]: 81.88%
GI% [21]: 28%
Growth Percent [21]: 72.03%
GI% [22]: 67%
Growth Percent [22]: 32.98%
GI% [23]: 53%
Growth Percent [23]: 46.89%
GI% [24]: 60%
Growth Percent [24]: 40.04%
GI% [25]: 48%
Growth Percent [25]: 52.09%
GI% [26]: 38%
Growth Percent [26]: 62.09%
GI% [27]: 43%
Growth Percent [27]: 56.86%

Cc1ccc(-c2nc(Nc3cccc(C(=O)O)c3)c3ccccc3n2)cc1 [7b, 3-((2-(p-Tolyl)quinazolin-4-yl)amino)benzoic acid]
GI% [1]: – (Only GI% higher than 20% are shown)
Growth Percent [1]: 107.97%
GI% [2]: – (Only GI% higher than 20% are shown)
Growth Percent [2]: 100.82%
GI% [3]: – (Only GI% higher than 20% are shown)
Growth Percent [3]: 116.40%
GI% [4]: – (Only GI% higher than 20% are shown)
Growth Percent [4]: 85.67%
GI% [5]: – (Only GI% higher than 20% are shown)
Growth Percent [5]: 95.15%
GI% [6]: 29%
Growth Percent [6]: 71.46%
GI% [7]: 29%
Growth Percent [7]: 70.78%
GI% [8]: – (Only GI% higher than 20% are shown)
Growth Percent [8]: 97.02%
GI% [9]: 27%
Growth Percent [9]: 73.18%
GI% [10]: 21%
Growth Percent [10]: 78.70%
GI% [11]: 34%
Growth Percent [11]: 65.83%
GI% [12]: – (Only GI% higher than 20% are shown)
Growth Percent [12]: 107.30%
Ki [13]: > 100 µM
Selectivity ratio II/IX [14]: 1.72
Ki [14]: 24.2 µM
Selectivity ratio I/XII [15]: 109.9
Selectivity ratio II/XII [15]: 45.82
Ki [15]: 0.91 µM
GI% [16]: – (Only GI% higher than 20% are shown)
Growth Percent [16]: 89.49%
GI% [17]: – (Only GI% higher than 20% are shown)
Growth Percent [17]: 96.44%
GI% [18]: – (Only GI% higher than 20% are shown)
Growth Percent [18]: 85.56%
GI% [19]: – (Only GI% higher than 20% are shown)
Growth Percent [19]: 86.87%
GI% [20]: – (Only GI% higher than 20% are shown)
Growth Percent [20]: 124.60%
GI% [21]: – (Only GI% higher than 20% are shown)
Growth Percent [21]: 111.51%
GI% [22]: – (Only GI% higher than 20% are shown)
Growth Percent [22]: 85.11%
GI% [23]: – (Only GI% higher than 20% are shown)
Growth Percent [23]: 82.90%
GI% [24]: – (Only GI% higher than 20% are shown)
Growth Percent [24]: 80.52%
GI% [25]: – (Only GI% higher than 20% are shown)
Growth Percent [25]: 83.59%
GI% [26]: – (Only GI% higher than 20% are shown)
Growth Percent [26]: 94.40%
GI% [27]: – (Only GI% higher than 20% are shown)
Growth Percent [27]: 96.55%

Reference: PMC10035947, “Development of novel anilinoquinazoline-based carboxylic acids as non-classical carbonic anhydrase IX and XII inhibitors” (Journal of Enzyme Inhibition and Medicinal Chemistry, 2023)
